Data on 13 molecules can be found in BindingDB's records for doi:10.1074/jbc.M114.574061 (AstraZeneca R&D Boston, 2014).

What all share (assay): Aminoacylation Assay
What all share (settings): pH 8

For test [1], the target named is Phenylalanine--tRNA ligase alpha/beta subunit (Pseudomonas aeruginosa (strain ATCC 15692 / PAO1 / 1C / PRS 101 / LMG12228), UniProt A0A8B5A132+Q9I0A4). On the procedure:
(§1) Compounds were solubilized in DMSO. Serial 2-fold dilutions covering two concentration ranges, 10 mM to 19.5 μM and 100 μM to 195 nM, were prepared. 0.6 μl/well of the diluted compound solutions (50× the final assay concentration) were added to white 384-well polystyrene assay plates (Thermo Fisher Scientific/Matrix Technology Corp., Hudson, NH). Uninhibited control wells (MAX)received 2 μl of 30% (v/v) DMSO. Baseline wells (MIN) received 2 μl of a solution containing 30% (v/v)DMSO and 15 mM L-phenylalanine (Sigma-Aldrich). Assays were performed in a buffer consisting of 50 mM Tris-HCl (pH 8.0), 50 mM NH4Cl, 10 mM MgCl2, 2 mM DTT, 0.005% Tween 20 (Surfact-Amps-20, Thermo Fisher Scientific/Pierce Protein Research products, Suwanee, GA), and 0.1 mM EDTA-NaOH (pH 8.0). Compounds were preincubated with 15 μl/well of either 2 nM E. coli PheRS, 2 nM H. influenzae PheRS, or 0.8 nM P. aeruginosa PheRS in buffer for 30 min at 2× final assay concentrations. The reactions were initiated with 15 μl/well of a 2× substrate solution in buffer containing 2 μM E. coli phenylalanine tRNA (Sigma-Aldrich), 100 μM ATP, and 2 μM [3H]Phe with a specific radioactivity of 6.3 Ci/mmol (PerkinElmer Life Sciences). The reactions were quenched after 30 min with 15 μl/well of a solution containing 4 mg/ml PVT/PEI/WGA type A SPA beads (PerkinElmer Life Sciences), 262 mM sodium citrate (pH 2.0), and 150 mM NaCl. The plates were sealed with transparent film (PerkinElmer Life Sciences). The beads were allowed to settle for a minimum of 2 h before scintillation counting with a Top-Count plate reader (PerkinElmer Life Sciences). [3H] counts (CPM) for aminoacylated tRNA were measured for 1 min/well.

Test [2] addresses Phenylalanine--tRNA ligase alpha/beta subunit (Escherichia coli (strain K12), UniProt P07395+P08312). The protocol: as §1
Test [3] concerns the target Phenylalanine--tRNA ligase alpha/beta subunit (Pseudomonas aeruginosa, UniProt Q9I0A3+Q9I0A4). On the procedure: as §1

Phenylalanine--tRNA ligase alpha/beta subunit (Escherichia coli (strain K12), UniProt P07395+P08312), sequence (P08312 whole entry): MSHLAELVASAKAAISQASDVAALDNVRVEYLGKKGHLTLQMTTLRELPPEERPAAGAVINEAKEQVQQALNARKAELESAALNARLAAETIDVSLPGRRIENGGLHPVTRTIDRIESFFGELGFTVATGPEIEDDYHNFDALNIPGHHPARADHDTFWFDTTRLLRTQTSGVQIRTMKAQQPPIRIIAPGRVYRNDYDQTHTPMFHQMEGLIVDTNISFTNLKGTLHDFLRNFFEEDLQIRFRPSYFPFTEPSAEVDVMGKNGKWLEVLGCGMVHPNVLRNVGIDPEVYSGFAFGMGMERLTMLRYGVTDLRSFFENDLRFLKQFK
Phenylalanine--tRNA ligase alpha/beta subunit (Escherichia coli (strain K12), UniProt P07395+P08312), sequence (P07395 whole entry): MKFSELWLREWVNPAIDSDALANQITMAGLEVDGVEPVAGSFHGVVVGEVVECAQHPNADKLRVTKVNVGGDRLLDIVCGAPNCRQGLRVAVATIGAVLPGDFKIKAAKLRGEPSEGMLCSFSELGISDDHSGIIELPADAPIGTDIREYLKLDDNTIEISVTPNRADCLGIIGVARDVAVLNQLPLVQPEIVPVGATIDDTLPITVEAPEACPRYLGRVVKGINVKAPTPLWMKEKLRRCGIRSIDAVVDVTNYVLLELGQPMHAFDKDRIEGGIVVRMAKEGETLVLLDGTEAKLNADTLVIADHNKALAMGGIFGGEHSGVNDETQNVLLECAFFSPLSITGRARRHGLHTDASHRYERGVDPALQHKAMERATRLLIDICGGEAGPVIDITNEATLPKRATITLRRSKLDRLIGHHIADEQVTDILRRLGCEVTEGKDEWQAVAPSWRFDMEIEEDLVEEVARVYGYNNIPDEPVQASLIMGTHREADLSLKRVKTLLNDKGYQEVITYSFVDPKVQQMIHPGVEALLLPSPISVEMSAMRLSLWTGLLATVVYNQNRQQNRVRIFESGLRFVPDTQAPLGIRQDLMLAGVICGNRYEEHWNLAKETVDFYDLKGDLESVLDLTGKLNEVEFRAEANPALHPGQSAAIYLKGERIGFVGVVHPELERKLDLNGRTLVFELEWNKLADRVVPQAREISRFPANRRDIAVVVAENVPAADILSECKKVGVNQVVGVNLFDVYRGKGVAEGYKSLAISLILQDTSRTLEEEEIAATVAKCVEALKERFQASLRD
Phenylalanine--tRNA ligase alpha/beta subunit (Pseudomonas aeruginosa (strain ATCC 15692 / PAO1 / 1C / PRS 101 / LMG12228), UniProt A0A8B5A132+Q9I0A4), sequence (A0A8B5A132 whole entry): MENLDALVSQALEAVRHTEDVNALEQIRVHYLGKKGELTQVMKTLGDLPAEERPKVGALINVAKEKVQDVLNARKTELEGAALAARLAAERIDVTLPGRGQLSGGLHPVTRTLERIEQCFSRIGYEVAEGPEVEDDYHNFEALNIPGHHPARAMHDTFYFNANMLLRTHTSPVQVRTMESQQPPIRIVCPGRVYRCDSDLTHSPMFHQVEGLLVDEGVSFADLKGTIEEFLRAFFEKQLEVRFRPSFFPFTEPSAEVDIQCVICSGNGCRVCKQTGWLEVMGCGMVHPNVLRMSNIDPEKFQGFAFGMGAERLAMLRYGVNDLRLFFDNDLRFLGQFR
Phenylalanine--tRNA ligase alpha/beta subunit (Pseudomonas aeruginosa (strain ATCC 15692 / PAO1 / 1C / PRS 101 / LMG12228), UniProt A0A8B5A132+Q9I0A4), sequence (Q9I0A4 whole entry): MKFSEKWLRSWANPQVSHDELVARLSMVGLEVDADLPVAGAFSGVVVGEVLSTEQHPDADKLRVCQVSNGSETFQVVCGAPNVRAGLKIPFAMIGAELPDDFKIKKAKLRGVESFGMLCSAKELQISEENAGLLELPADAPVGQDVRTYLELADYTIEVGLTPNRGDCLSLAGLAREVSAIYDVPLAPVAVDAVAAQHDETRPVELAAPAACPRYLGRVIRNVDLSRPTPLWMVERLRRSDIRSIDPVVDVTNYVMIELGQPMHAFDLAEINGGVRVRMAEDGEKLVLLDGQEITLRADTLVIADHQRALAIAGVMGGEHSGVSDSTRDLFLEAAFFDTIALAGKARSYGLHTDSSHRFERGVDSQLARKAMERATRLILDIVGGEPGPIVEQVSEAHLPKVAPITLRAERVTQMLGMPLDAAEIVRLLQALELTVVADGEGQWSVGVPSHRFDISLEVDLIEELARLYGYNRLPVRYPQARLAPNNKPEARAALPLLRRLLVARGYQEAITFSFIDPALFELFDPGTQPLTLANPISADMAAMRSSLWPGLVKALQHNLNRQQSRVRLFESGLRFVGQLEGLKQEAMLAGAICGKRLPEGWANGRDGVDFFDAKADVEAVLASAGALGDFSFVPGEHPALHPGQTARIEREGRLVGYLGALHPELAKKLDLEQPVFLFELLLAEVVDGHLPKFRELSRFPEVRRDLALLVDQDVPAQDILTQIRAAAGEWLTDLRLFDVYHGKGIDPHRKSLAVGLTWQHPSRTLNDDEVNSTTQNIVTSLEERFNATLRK
Phenylalanine--tRNA ligase alpha/beta subunit (Pseudomonas aeruginosa, UniProt Q9I0A3+Q9I0A4), sequence (Q9I0A3 whole entry): as the sequence (A0A8B5A132 whole entry) above
Phenylalanine--tRNA ligase alpha/beta subunit (Pseudomonas aeruginosa, UniProt Q9I0A3+Q9I0A4), sequence (Q9I0A4 whole entry): as the sequence (Q9I0A4 whole entry) above

With `O=C(Nc1cccc(S(=O)(=O)N2CCN(c3ccccn3)CC2)c1)Nc1nccs1` [1-(3-(4-(Pyridin-2-yl)piperazin-1-ylsulfonyl)phenyl)-3-(thiazol-2-yl)urea (1a)], the 50% inhibitory concentration (IC50) amounted to 22 nM in test [1] and 2.7 nM in test [2].

With `CNC(=O)COc1cccc(Nc2cc(Cl)ccn2)c1` [2-(3-(4-Chloropyridin-2-ylamino)phenoxy)-N-methylacetamide (2a)], the half-inhibitory concentration (IC50) stood at 82000 nM in test [1] and 1400 nM in test [2].

On to `CNC(=O)COc1cccc(Nc2cc(C#N)ccn2)c1` [2-(3-(4-Cyanopyridin-2-ylamino)phenoxy)-N-methylacetamide (2b)], for which the IC50 was determined as 41000 nM in test [1] and 560 nM in test [2].

`COc1cccc(-c2ncc(C(F)(F)F)[nH]2)c1` [2-(3-methoxyphenyl)-5-(trifluoromethyl)-1H-imidazole (3d)]: the IC50 in test [3] is greater than 200000 nM; in test [2], 16000 nM.

For the molecule `NS(=O)(=O)CCNC(=O)c1csc(COc2ccc(Cl)cc2)n1` [2-((4-Chlorophenoxy)methyl)-N-(2-sulfamoylethyl)thiazole-4-carboxamide (4c)], the IC50 is 26000 nM in test [1] and 190 nM in test [2].

`N#CCNC(=O)c1csc(COc2ccc(Cl)cc2)n1` [2-((4-Chlorophenoxy)methyl)-N-(cyanomethyl)thiazole-4-carboxamide (4b)]: the IC50 in test [1] is 13000 nM; in test [2] it was 100 nM.

Consider `O=C(COc1cccc(Nc2cc(Cl)ccn2)c1)NC1CCS(=O)(=O)C1` (stereo unspecified) [2-[3-[(4-Chloro-2-pyridyl)amino]phenoxy]-N-(1,1-dioxothiolan-3-yl)acetamide (2c)], for which the IC50 in test [1] was determined as 34000 nM; in test [2], 100 nM.

Take `COc1cccc(-c2cc(C(F)(F)F)n[nH]2)c1` [5-(3-Methoxyphenyl)-3-(trifluoromethyl)-1H-pyrazole (3a)]: the IC50 in test [3] was 10000 nM; in test [2] it was 60 nM.

Regarding `CCOC(=O)COc1cccc(-c2cc(C(F)F)n[nH]2)c1` [Ethyl 2-(3-(3-(difluoromethyl)-1H-pyrazol-5-yl)phenoxy)acetate (3c)], the IC50 is 59000 nM in test [3] and 1000 nM in test [2].

With `CCOC(=O)COc1cccc(-c2cc(C(F)(F)F)[nH]n2)c1` [Ethyl 2-(3-(5-(trifluoromethyl)-1H-pyrazol-3-yl)phenoxy)acetate (3b)], the IC50 worked out at 11000 nM in test [3] and 80 nM in test [2].

With `Cc1ccc(OCc2nc(C(=O)NC3CCS(=O)(=O)C3)cs2)cc1` (stereo unspecified) [N-(1,1-dioxothiolan-3-yl)-2-[(4-methylphenoxy)methyl]thiazole-4-carboxamide (4a)], the IC50 in test [1] turned out to be 80000 nM; in test [2], 1400 nM.

Regarding `CS(=O)(=O)C1(CCNC(=O)COc2cccc(-c3cc(C(F)(F)F)[nH]n3)c2)CC1` [N-(2-(1-(methylsulfonyl)cyclopropyl)ethyl)-2-(3-(5-(trifluoromethyl)-1H-pyrazol-3-yl)phenoxy)acetamide (3e)], the IC50 was found to be 4200 nM in test [3] and 70 nM in test [2].

Consider `O=C(Nc1cccc(S(=O)(=O)NCCc2c[nH]c3ccccc23)c1)Nc1nccs1` [N-(2-(1H-indol-3-yl)ethyl)-3-(3-thiazol-2-ylureido)benzenesulfonamide (1b)], for which the results for the IC50 in test [3] and in test [2] were 13 nM and 2.2 nM, respectively.
